Source: publication PMC3230571 (International Journal of Nanomedicine, 2011)

Test system: rats with streptozotocin-induced diabetes
Assay: Hypoglycemic effect and relative bioavailability after oral administration
Assay type: in vivo, rat
Settings: diabetic rats fasted 12 hours, oral 20 IU/kg, n = 6

Substance: insulin
- Hypoglycemic effect (plasma glucose relative to the initial value): did not appreciably lower the blood glucose levels
